Results: patent US10308662B2, “Thienopyranones as kinase and epigenetic inhibitors” (SignalRx Pharmaceuticals, Inc., priority 2014, dated 2019)
Values belong to the compound of their own block, whether it stands above or below them.

Assays:
[1] = tested on: pAKT serine 473 in PC3 cells; experiment: Cellular PI3K inhibition, pAKT ELISA in PC3 cells; assay type: cell-based; details: Homo sapiens, PC-3; IGF-1 stimulated PC3 cells
Protocol: Biological testing of compounds of Formula I. Representative compounds of the invention were tested for cellular PI3K inhibitory activity (as measured by the most robust marker of pathway activity pAKT) in a prostate cancer cell line (PC3), which is summarized in Table 3. […] Two million cells from the prostate cancer line PC3 were placed into 6 cm culture dishes and allowed to grow in complete RPMI 1640 media (Invitrogen, Carlsbad, Calif., Cat.#22400-105) with 10% fetal bovine serum (Invitrogen, Carlsbad, Calif., Cat.#10438-026). After this time period the cells were serum starved for 5 hours followed by application of the test compound. Test compound was added as a DMSO (dimethyl sulfoxide) solution such that the final DMSO concentration in the cell media was less than or equal to 0.2% by volume. After 30 minutes of exposure the growth factor stimulant, human IGF-1 (PeproTech, Inc., Rocky Hill, N.J., Cat.#100-11), was added in each well. After 30 minutes of IGF-1 exposure, cells were removed from the media and cell lysates were prepared using RIPA Lysis buffer (Upstate, Lake Placid, N.Y., Cat.#20-188), keeping on ice. The pAKT serine 473 level was measured in duplicate samples of the cell lysates using commercially available assays such as the Pathscan® Sandwich ELISA kit for Ser473 pAKT (Cell Signaling, Danvers, Mass., Cat.#7160). A SpectraMax Plus spectrophotometric plate reader (Molecular Devices, Sunnydale, Calif.) was used to measure the optical density signal for pAKT at 450 nm (OD450 nm). The pAKT OD450 nm readings were normalized by total protein amount in the cell lysates determined by standard methods.

BRD4-1 = BRD4-1 (Homo sapiens (Human), UniProt O60885); details: cited from earlier work
N-MYC = experiment: Western blot of N-MYC in SKNBE(2) cells; assay type: cell-based, human; details: 24 hrs treatment, 50 ng/ml IGF stimulation
Protocol: (§1) Cells were stimulated with 50 ng/ml IGF for 30 min and used for lysate preparation. Proteins were quantitated by the BCA protein assay (Pierce). Equal amounts of protein were resolved by polyacrylamide gels, transferred to nitrocellulose membrane and probed by Western blot with the following primary antibodies: p-AKT(Ser473), AKT (Cell Signaling Technologies), N-MYC, CyclinD1 and β-actin (Santa Cruz Biotechnology).

p-AKT(Ser473) = experiment: Western blot of pAKT in SKNBE(2) cells; assay type: cell-based, human; details: 24 hrs treatment, 50 ng/ml IGF stimulation
Protocol: as §1

MYCN promoter region = experiment: Brd4 chromatin precipitation with quantitative PCR of MYCN promoter in SKNBE(2) cells; assay type: cell-based, human; details: 24 hours exposure
Protocol: MYCN amplified SKNBE(2) cells were exposed to inhibitors for 24 hours then chromatin was precipitated with Brd4 (rabbit polyclonal antibody) along with rabbit IgG as a negative control (IgG). Precipitated chromatin was analyzed for the MYCN gene (2 sites within the MYCN promoter region) by quantitative PCR and enrichment is shown as the percentage of total input DNA (FIG. 4). The negative control region primers amplify within a gene desert region approximately 1 Mb away from MYCN (MYC-N NR). Error bars represent±SEM of triplicate data. P<0.05 as compared to positive control (paired t-test).

BET bromodomains = details: cited from earlier work
PI-3 kinases = details: cited from earlier work
PI3Kα = PI3Kα (Homo sapiens (Human), UniProt P42336); experiment: PI3K alpha isoform inhibition; assay type: biochemical; details: 300 nM
PI3Kα, sequence (P42336 whole entry, canonical isoform): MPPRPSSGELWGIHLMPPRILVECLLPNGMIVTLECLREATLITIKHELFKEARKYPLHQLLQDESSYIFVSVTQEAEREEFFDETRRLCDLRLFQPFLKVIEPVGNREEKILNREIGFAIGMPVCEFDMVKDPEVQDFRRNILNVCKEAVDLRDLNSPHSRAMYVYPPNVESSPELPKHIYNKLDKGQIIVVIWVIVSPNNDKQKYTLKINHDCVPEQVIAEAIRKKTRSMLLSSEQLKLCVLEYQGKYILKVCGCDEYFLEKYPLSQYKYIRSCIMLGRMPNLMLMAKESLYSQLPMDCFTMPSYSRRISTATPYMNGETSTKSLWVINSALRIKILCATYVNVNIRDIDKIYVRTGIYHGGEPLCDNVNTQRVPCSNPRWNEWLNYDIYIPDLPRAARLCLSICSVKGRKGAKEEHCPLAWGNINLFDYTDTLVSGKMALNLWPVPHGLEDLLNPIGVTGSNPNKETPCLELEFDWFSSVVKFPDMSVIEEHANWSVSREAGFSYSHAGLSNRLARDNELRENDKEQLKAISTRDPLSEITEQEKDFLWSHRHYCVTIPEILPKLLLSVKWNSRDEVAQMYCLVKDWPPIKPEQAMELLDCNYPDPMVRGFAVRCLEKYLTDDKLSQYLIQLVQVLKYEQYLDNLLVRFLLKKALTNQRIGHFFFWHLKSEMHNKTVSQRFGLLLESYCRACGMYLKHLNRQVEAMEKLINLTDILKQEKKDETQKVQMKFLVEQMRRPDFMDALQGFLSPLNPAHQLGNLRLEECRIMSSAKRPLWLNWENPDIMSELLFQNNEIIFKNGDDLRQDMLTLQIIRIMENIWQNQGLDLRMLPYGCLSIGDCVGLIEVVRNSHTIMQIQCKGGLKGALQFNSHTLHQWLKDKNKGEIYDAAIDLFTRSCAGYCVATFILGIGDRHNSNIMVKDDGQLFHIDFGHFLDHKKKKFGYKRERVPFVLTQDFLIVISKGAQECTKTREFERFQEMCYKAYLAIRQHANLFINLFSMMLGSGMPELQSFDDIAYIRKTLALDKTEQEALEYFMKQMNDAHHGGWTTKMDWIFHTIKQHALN
PI3Kα, sequence (P27986 whole entry partner, canonical isoform): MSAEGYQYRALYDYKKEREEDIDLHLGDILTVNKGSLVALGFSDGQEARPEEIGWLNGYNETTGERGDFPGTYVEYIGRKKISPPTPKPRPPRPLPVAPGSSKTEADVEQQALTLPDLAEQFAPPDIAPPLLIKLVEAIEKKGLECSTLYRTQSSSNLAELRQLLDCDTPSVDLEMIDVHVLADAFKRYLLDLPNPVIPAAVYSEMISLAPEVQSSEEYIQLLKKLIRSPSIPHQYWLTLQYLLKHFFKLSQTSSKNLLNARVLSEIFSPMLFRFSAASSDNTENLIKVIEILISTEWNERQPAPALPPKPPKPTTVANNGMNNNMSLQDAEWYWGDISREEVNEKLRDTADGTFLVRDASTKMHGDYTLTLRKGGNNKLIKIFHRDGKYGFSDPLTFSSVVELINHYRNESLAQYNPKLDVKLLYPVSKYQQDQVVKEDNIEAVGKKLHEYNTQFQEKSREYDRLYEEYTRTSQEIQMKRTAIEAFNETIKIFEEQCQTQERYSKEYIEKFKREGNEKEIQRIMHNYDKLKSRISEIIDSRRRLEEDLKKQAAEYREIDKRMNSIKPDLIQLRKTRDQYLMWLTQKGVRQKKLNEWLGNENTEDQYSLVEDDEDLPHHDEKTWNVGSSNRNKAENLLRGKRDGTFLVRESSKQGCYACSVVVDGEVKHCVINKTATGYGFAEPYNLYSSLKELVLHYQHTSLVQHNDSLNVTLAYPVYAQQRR

HDAC = HDAC inhibitory activity, commercial kit; assay type: biochemical; details: for HDAC inhibitory activity: 1, 10, 50 μM
PI3Kγ = PI3Kγ (Homo sapiens (Human), UniProt P48736); experiment: PI3K gamma isoform inhibition; assay type: biochemical; details: 300 nM
PI3Kγ, sequence (P48736 whole entry, canonical isoform): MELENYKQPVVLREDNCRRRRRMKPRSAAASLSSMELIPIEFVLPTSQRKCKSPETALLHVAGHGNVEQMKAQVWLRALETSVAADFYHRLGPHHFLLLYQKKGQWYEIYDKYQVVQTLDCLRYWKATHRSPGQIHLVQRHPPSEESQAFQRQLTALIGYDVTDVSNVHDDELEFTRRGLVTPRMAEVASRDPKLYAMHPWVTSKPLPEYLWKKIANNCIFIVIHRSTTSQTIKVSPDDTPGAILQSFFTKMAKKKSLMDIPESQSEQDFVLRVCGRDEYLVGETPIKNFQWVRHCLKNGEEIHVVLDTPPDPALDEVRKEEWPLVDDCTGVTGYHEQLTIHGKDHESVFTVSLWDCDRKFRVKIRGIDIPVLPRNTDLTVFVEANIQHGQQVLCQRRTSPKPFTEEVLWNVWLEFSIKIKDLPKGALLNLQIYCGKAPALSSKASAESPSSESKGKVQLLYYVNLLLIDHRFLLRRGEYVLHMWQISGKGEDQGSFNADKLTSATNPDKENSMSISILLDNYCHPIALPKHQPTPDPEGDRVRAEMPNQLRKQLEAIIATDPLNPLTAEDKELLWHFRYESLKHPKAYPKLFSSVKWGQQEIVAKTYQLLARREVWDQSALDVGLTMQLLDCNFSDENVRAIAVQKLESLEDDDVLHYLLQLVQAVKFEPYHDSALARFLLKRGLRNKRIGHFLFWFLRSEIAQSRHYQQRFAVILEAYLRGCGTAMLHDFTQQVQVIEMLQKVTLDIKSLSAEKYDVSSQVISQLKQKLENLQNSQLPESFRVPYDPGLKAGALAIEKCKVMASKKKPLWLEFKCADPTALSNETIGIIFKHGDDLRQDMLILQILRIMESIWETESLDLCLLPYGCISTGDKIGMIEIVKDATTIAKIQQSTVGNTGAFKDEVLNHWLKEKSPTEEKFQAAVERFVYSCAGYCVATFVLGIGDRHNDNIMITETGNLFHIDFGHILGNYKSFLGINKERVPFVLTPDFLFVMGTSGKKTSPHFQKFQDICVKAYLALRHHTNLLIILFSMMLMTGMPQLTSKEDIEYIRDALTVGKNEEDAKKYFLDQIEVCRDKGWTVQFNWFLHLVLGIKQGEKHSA

PI3Kδ = PI3Kδ (Homo sapiens (Human), UniProt O00329); experiment: PI3K delta isoform inhibition; assay type: biochemical; details: 300 nM
PI3Kδ, sequence (O00329 whole entry, canonical isoform): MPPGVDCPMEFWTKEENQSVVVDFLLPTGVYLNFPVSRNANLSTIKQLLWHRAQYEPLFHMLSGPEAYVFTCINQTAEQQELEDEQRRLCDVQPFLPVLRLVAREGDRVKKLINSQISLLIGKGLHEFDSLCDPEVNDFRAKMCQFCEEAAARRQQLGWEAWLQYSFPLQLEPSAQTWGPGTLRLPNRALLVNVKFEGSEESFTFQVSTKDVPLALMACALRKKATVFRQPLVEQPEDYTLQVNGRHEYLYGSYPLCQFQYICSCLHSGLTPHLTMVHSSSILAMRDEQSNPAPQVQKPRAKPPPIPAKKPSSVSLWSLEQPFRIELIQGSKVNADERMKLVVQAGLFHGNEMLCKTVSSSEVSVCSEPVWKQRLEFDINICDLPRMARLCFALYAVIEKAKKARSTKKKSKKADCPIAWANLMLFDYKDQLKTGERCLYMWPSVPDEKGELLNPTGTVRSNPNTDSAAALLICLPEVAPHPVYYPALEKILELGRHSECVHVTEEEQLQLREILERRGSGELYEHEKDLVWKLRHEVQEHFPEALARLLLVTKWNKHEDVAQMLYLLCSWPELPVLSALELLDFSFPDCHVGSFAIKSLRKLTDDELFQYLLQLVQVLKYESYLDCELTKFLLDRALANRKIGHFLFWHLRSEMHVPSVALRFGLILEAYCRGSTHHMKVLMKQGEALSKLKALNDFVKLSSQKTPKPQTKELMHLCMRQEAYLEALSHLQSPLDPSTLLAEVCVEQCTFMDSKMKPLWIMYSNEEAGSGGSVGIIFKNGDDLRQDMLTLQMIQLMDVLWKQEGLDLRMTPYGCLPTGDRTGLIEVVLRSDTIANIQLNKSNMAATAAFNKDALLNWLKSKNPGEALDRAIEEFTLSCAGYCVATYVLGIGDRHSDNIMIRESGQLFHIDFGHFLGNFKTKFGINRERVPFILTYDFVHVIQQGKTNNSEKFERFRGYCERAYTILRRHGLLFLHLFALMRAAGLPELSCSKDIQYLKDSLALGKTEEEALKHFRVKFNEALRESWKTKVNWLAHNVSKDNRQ
PI3Kδ, sequence (P27986 whole entry partner, canonical isoform): as the sequence (P27986 whole entry partner, canonical isoform) above
Description: (§2) Inhibitory activity can be determined routinely using known methods and also from commercial vendors offering this service for kinases and bromodomain proteins. […] In vivo, PI3K inhibition can be determined from target tissue biopsies by standard tissue processing to disrupt cells and then performing Western Blot analysis to determine the presence or absence of pAKT (substrate of PI3K) relative to a control sample. The activity of a compound of the invention as an inhibitor of a bromodomain-containing protein, such as a BET protein, such as BRD2, BRD3, BRD4, and/or BRDT, or an isoform or mutant thereof, may be determined in vitro, in vivo, or in a cell line. In vitro assays include assays that determine inhibition of bromodomain-containing proteins. Alternatively, inhibitor binding may be determined by running a competition experiment where a provided compound is incubated with a bromodomain-containing protein, such as a BET protein bound to known ligands, labeled or unlabeled. For example, bromodomain inhibition can be determined in vitro using Alpha Screen Technology (http://www.reactionbiology.com/webapps/site/NewsPDFs/Bromodomain%20Assay%20Platform%20for%20Drug%20Screening%20and%20Discovery.pdf). […]

PI3K = PI3K inhibition (isoform not given); assay type: biochemical
Description: as §2

breast cancer stem cells = details: women with breast tumors with high HER2; decreased from 11%; cited from earlier work
BRD4 = BRD4 (Homo sapiens, UniProt O60885); experiment: BRD4 inhibition assay (region not specified); assay type: binding

Compound: COc1cccc(-c2csc3c(=O)cc(N4CCOCC4)oc23)c1 [Cmpd 29]
IC50 [1]: 1.07 µM

Compound: Cc1ccc(-c2csc3c(=O)cc(N4CCOCC4)oc23)cc1 [Cmpd 15]
IC50 [1]: 0.948 µM

Compound: CN(c1ccccc1CNc1nc(Nc2ccc3c(c2)CC(=O)N3)ncc1C(F)(F)F)S(C)(=O)=O [PF-431396]
BRD4-1 inhibition (BRD4-1): some degree of BRD4-1 inhibitory activity

Compound: O=c1cc(N2CCOCC2)oc2c(-c3ccccc3)cccc12 [LY294002, 2-(4-morpholinyl)-8-phenyl-4H-1-benzopyran-4-one]
MYCN quantity by Western blot (N-MYC): decreased MYCN
pAKT level by Western blot (p-AKT(Ser473)): decreased MYCN and pAKT
MYCN expression (Brd4-precipitated chromatin, MYCN promoter PCR) (MYCN promoter region): significantly repressed MYCN expression
BET bromodomain inhibition (BET bromodomains): modestly inhibit

Compound: O=c1cc(N2CCNCC2)oc2c(-c3ccccc3)cccc12 [LY303511]
MYCN quantity by Western blot (N-MYC): inhibited only MYCN quantities
PI3K inhibition activity (PI-3 kinases): lose PI3K inhibition activity
MYCN expression (Brd4-precipitated chromatin, MYCN promoter PCR) (MYCN promoter region): significantly repressed MYCN expression
BET bromodomain inhibition (BET bromodomains): retain BET bromodomain inhibition

Compound: O=C(NO)c1ccc(-c2csc3c(=O)cc(N4CCOCC4)oc23)cc1 [Cmpd 118]
inhibition at 0.3 µM (PI3Kα): 76%
HDAC activity inhibition versus control (HDAC; 1 μM): 17%
HDAC activity inhibition versus control (HDAC; 10 μM): 25%
HDAC activity inhibition versus control (HDAC; 50 μM): 41%
HDAC inhibitory activity (HDAC): significant HDAC inhibitory activity
inhibition at 0.3 µM (PI3Kγ): 30%
inhibition at 0.3 µM (PI3Kδ): 80%

Compound: COC(=O)c1scc(-c2csc3c(=O)cc(N4CCOCC4)oc23)c1O [Cmpd 21]
IC50 [1]: 1.04 µM

Compound: O=c1cc(N2CCOCC2)oc2c(-c3cc4ccccc4[nH]3)csc12 [Cmpd 12]
IC50 [1]: 1.57 µM

Compound: Cc1c(Cn2c(C)nc3c(C(=O)O)cc(N4CCOCC4)cc32)cccc1C(F)(F)F [GSK2636771]
BRD4-1 inhibition (BRD4-1): some degree of BRD4-1 inhibitory activity

Compound: Cc1cnc(Nc2ccc(OCCN3CCCC3)cc2)nc1Nc1cccc(S(=O)(=O)NC(C)(C)C)c1 [TG-101348]
BRD4-1 inhibition (BRD4-1): some degree of BRD4-1 inhibitory activity

Compound: O=c1cc(N2CCOCC2)oc2c(C#CCO)csc12 [Cmpd 24]
IC50 [1]: 4.61 µM

Compound: O=c1cc(N2CCOCC2)oc2c(-c3ccc4[nH]ccc4c3)csc12 [Cmpd 19]
IC50 [1]: 0.901 µM

Compound: N#Cc1ccc(-c2csc3c(=O)cc(N4CCOCC4)oc23)cc1 [Cmpd 5]
IC50 [1]: 7.3 µM

Compound: Cc1sc2c(c1C)C(c1ccc(Cl)cc1)=N[C@@H](CC(=O)OC(C)(C)C)c1nnc(C)n1-2 [JQ-1]
MYCN quantity by Western blot (N-MYC): inhibited only MYCN quantities
PI3K inhibition (PI3K): does not inhibit PI3K
MYCN expression (Brd4-precipitated chromatin, MYCN promoter PCR) (MYCN promoter region): significantly repressed MYCN expression

Compound: O=c1cc(N2CCOCC2)oc2c(C#Cc3ccsc3)csc12 [Cmpd 23]
IC50 [1]: 1.27 µM

Compound: Cc1cccc(-c2csc3c(=O)cc(N4CCOCC4)oc23)c1 [Cmpd 16]
IC50 [1]: 1.23 µM

Compound: O=c1cc(N2CCOCC2)oc2c(-c3ccc4c(c3)OCO4)csc12 [Cmpd 7]
IC50 [1]: 0.54 µM

Compound: CS(=O)(=O)CCNCc1ccc(-c2ccc3ncnc(Nc4ccc(OCc5cccc(F)c5)c(Cl)c4)c3c2)o1 [Lapatinib]
breast cancer stem cells in biopsies after treatment (breast cancer stem cells): 5 % of cells

Compound: O=c1cc(N2CCOCC2)oc2c(-c3ccc(Cl)cc3)csc12 [Cmpd 17]
IC50 [1]: 1.41 µM

Compound: COc1ccc(-c2csc3c(=O)cc(N4CCOCC4)oc23)cc1 [Cmpd 8]
IC50 [1]: 0.98 µM

Compound: CN(C)c1ccc(-c2csc3c(=O)cc(N4CCOCC4)oc23)cc1 [Cmpd 9]
IC50 [1]: 0.78 µM

Compound: O=c1cc(N2CCOCC2)oc2c(Cc3ccccc3)csc12 [Cmpd 1]
IC50 [1]: 0.864 µM

Compound: O=c1cc(N2CCOCC2)oc2c(-c3cccs3)csc12 [Cmpd 14]
IC50 [1]: 1.02 µM

Compound: O=c1cc(N2CCOCC2)oc2c(-c3ccoc3)csc12 [Cmpd 27]
IC50 [1]: 3.23 µM

Compound: O=c1cc(N2CCOCC2)oc2c(-c3ccccc3)csc12 [Cmpd 6]
IC50 [1]: 0.55 µM

Compound: O=c1cc(N2CCOCC2)oc2c(-c3ccsc3)csc12 [Cmpd 26]
IC50 [1]: 1.56 µM

Compound: COC(=O)c1ccc(-c2csc3c(=O)cc(N4CCOCC4)oc23)cc1 [Cmpd 44, Methyl 4-(5-morpholino-7-oxo-7H-thieno[3,2-b]pyran-3-yl)benzoate]
inhibition at 0.3 µM (PI3Kα): 53%
HDAC inhibitory activity (HDAC): No inhibitor activity
BRD4 inhibition (BRD4): showed activity against BRD4 regions 1 and 2
inhibition at 0.3 µM (PI3Kγ): 26%
inhibition at 0.3 µM (PI3Kδ): 81%

Compound: O=c1cc(N2CCOCC2)oc2c(-c3ccc(Cl)c(Cl)c3)csc12 [Cmpd 18]
IC50 [1]: 0.913 µM

Compound: Nc1cccc(-c2csc3c(=O)cc(N4CCOCC4)oc23)c1 [Cmpd 11, 3-(3-Amino-phenyl)-5-morpholin-4-yl-thieno[3,2-b]pyran-7-one]
IC50 [1]: 6.32 µM

Compound: O=c1cc(N2CCOCC2)oc2c(-c3ccco3)csc12 [Cmpd 4]
IC50 [1]: 0.93 µM

Compound: Cc1cnc(Nc2ccc(N3CCN(C)CC3)cc2)nc1Nc1cccc(S(=O)(=O)NC(C)(C)C)c1 [TG101209]
BRD4-1 inhibition (BRD4-1): potently inhibit

Compound: Cn1c(=O)n(-c2ccc(C(C)(C)C#N)cc2)c2c3cc(-c4cnc5ccccc5c4)ccc3ncc21 [BEZ235]
pAKT level by Western blot (p-AKT(Ser473)): decreased pAKT

Compound: O=c1cc(N2CCOCC2)oc2c(-c3cccnc3)csc12 [Cmpd 3]
IC50 [1]: 4.87 µM

Compound: CC(C)n1nc(-c2cc3cc(O)ccc3[nH]2)c2c(N)ncnc21 [PP-242]
BRD4-1 inhibition (BRD4-1): some degree of BRD4-1 inhibitory activity

Compound: CN1CCOc2cc(-c3csc4c(=O)cc(N5CCOCC5)oc34)ccc21 [Cmpd 22]
IC50 [1]: 0.609 µM

Compound: O=c1cc(N2CCOCC2)oc2c(-c3ccncc3)csc12 [Cmpd 2]
IC50 [1]: 3.03 µM

The next lines start with results.

BRD4 inhibition (BRD4): no BRD4 inhibition
Compound: CC[C@H](Nc1ncnc2[nH]cnc12)c1nc2cccc(F)c2c(=O)n1-c1ccccc1 [CAL101]
pAKT level by Western blot (p-AKT(Ser473)): decreased pAKT
MYCN expression (Brd4-precipitated chromatin, MYCN promoter PCR) (MYCN promoter region): did not

BRD4 inhibition (BRD4): no BRD4 inhibition
Compound: Nc1cc(C(F)(F)F)c(-c2cc(N3CCOCC3)nc(N3CCOCC3)n2)cn1 [BKM120, reference compound]
pAKT level by Western blot (p-AKT(Ser473)): decreased pAKT
